According to US8283322B2, “Formulations for nonsurgical exogenous crosslink therapy” (Orthopeutics, LP, priority 2008, dated 2012):
Values after ≈ are worked out from the molar mass of the structure shown.

Assays:
[1] = test system: lumbar intervertebral joints (posterior annulus); assay: Indentation testing (stress relaxation, hardness) with compression/flexion fatigue cycling; conditions: soaking the calf disc tissue in 0.33% concentration of genipin
From the text: Thirty-three lumbar intervertebral joints were obtained from ten four-month-old calf spines. The intervertebral joints were arbitrarily divided into 3 groups: untreated controls-12 specimens, Genipin treatment 1 (G1)-6 specimens, and Genipin treatment 2 (G2)-13 specimens. The G1 treatment involved 72 hrs of soaking the whole specimen in PBS with a 0.033% concentration of Genipin. Similarly, the G2 treatment involved 72 hrs of soaking whole specimens in PBS with 0.33% concentration of Genipin. 0.33% Genipin in PBS is produced by dilution of 50 ml of 10×. PBS (Phosphate Buffered Saline) with distilled water by a factor of 10 to give 500 ml (500 gm) of PBS and mixing in 1.65 grams of genipin to produce the 0.33% (wt %, gm/gm) solution. […] Some controls were not subjected to soaking prior to fatigue testing. Others were soaked in a saline solution for 72 hrs. Water mass loss experiments were conducted to establish the equivalency of outer annulus hydration between the genipin soaked and 0.9% saline soaked controls. The selection of treatments was randomized by spine and level. […]
Following initial indentation testing, the specimen was loaded repetitively in flexion-compression at 200 N for 3000 cycles at a rate of 0.25 Hz. […] Several statistical measures were calculated to evaluate the significance of the results. […]

[2] = test system: calf lumbar spinal discs; assay: Diffusion study in calf lumbar spinal discs (area of diffusion zone, ImageJ); conditions: 0.1% (w/v) SDS in PBS, 1 hr, 37° C.; p=0.021
Experimental: FIG. 12—Diffusion kinetics of genipin and BSA in calf lumbar spinal discs. 200 μl of 0.33% (w/v) or 1 mg/ml BSA-Texas Red were injected at a depth of 1 cm into the discs of individual calf lumbar motion segments and incubated for 1, 3 or 6 hours at 37° C. Samples were transected and the area of each diffusion zone at each time point and for each reagent was determined from photographs using ImageJ software.
FIG. 13—Effect of surfactants on the diffusion of GP and BSA-TR. 200 μl of 0.33% (w/v) or 1 mg/ml BSA-Texas Red formulated in PBS in the absence of presence of 0.1% (w/v) of either Tween-20 or SDS were injected at a depth of 1 cm into the discs of individual calf lumbar motion segments. Segments were incubated for 1 hr at 37° C. and the samples were then transected and the area of each diffusion zone determined from photographs using ImageJ software.
In order to observe the diffusion kinetics of these markers, GP (0.33% (w/v)) or BSA-TR (1 mg/ml) were dissolved in PBS and 200 μl injected at a depth of 1 cm into the discs of individual calf lumbar motion segments and incubated at 37° C. for 1, 3 or 6 hrs in sealed ZipLoc bags containing a sheet of paper towel moistened with H2O. […] In some cases, however, diffusion zones merged and were not possible to quantify and in subsequent experiments injections were limited to the left and right lateral regions. […]

[3] = physchem; type: physicochemical
From the text: In the case of crosslinking agents that are not very water-soluble, additional reagents may be required to maintain the solubility of the crosslinking agent. Such reagents should be miscible with water and function to increase the solubility of the crosslinking agent by reducing the hydrophilicity of the aqueous medium. […] At the upper limit, GP was soluble in 100% DMSO to a level of 2.6M. […] Thus manipulation of the buffer concentration and the addition of co-solvents allows for the manipulation of the crosslinking reagent concentration to the desired level. The values were all determined at ambient room temperature. Crosslinker solubility could also be increased by increasing the temperature of the solvent.

[4] = test system: homogenized annulus tissue; conditions: bovine
Experimental: (§1) Increasing concentrations of protein crosslinkers were added to homogenized annulus tissue and incubated for either 1 hr (EDC, GP, MG, PA and GA), 2 hrs (TG) or 6 hrs (DT and LT). Crosslinking was quantified by determining the amount of hydroxyproline (HYP) released from the tissue by collagenase digestion.
(§2) Homogenized annulus tissue was treated with sub-saturating concentrations of various crosslinkers at varying pH and incubated for either 1 hr (EDC, GP, MG, PA and GA), 2 hrs (TG) or 6 hrs (LT). Crosslinking was quantified by determining the amount of hydroxyproline (HYP) released from the tissue by collagenase digestion.
(§3) In order to determine the effective concentration range for various crosslinking reagents we incubated samples of annulus tissue in increasing concentrations of either genipin (GP), methylglyoxal (MG), proanthrocyanidin (PA), L-threose (LT), D-threose (DT), dimethylaminopropyl) carbodiimide hydrochloride (EDC) or transglutaminase (TG). Crosslinking efficiency was measured indirectly by monitoring the release of peptides containing hydroxyproline upon subsequent digestion with collagenase. Glutaraldehyde (GA), a commonly used, but highly toxic protein crosslinker was used as a positive control.
(§4) To test this hypothesis, the inventors subjected calf annulus fibrosus tissue to crosslinking with sub-saturating levels of our reagents at varying pH. In order to maintain optimal buffering capacity at each pH, different buffers were selected for each point.

[5] = test system: homogenized annulus tissue; assay: Crosslinking of annulus tissue quantified by hydroxyproline release upon collagenase digestion
Experimental: as §1, §2, §3, §4

solubility ([3]; aqueous buffer): 60.4 mM (≈ 13.7 mg/mL) | solubility ([3]; aqueous with cosolvent or surfactant or cyclodextrin): 74.6 mM (≈ 16.9 mg/mL) | solubility ([3]; organic solvent or mixture): 2600 mM (≈ 588 mg/mL) | solubility ([3]; pH 9, aqueous buffer): 39.6 mM (≈ 8.96 mg/mL) | solubility ([3]; pH 9, aqueous with cosolvent or surfactant or cyclodextrin): 63.3 mM (≈ 14.3 mg/mL) | T1/2 [4]: 10 to 18 min | effect of phosphate on crosslinking ([5]; Tris buffer pH 8, increasing concentrations of sodium phosphate): dose-dependent enhancement
Compound: COC(=O)C1=CO[C@@H](O)[C@@H]2C(CO)=CC[C@H]12 [Genipin, genipin]
reduction in viscoelastic degradation [1]: More than a three-fold reduction | enhancement of diffusion by SDS [2]: approximately 30% | effect of buffer (EPPS vs Tris) on crosslinking ([5]; 100 mM EPPS or 100 mM Tris, GP at pH 9): more effective in EPPS buffer than in Tris | pH ([5]; optimized pH for crosslinking, Table 5): 8-9 | [Saturating] ([5]; saturating crosslinker concentration, Table 5): 5 to 10 mM | pH dependence of crosslinking ([5]; sub-saturating crosslinker, pH 4-9 with a different buffer at each pH (FIG. 2, FIG. 3)): function better in disc tissue at the higher pH levels
